According to PubChem BioAssay (NCI):
Values joined by “and” are separate entries in the source; they are usually repeats but may differ in a detail not shown here. Equal values may be shown once.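 Protocol summary: plate cells (96-well), add compound at 5 concentrations, incubate 48 h, interpolate endpoints linearly. The concentration for 50% growth inhibition is given as GI50. TGI: concentration producing complete growth inhibition.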

Columns and labels:
Assay in all cases: growth of human tumour cells (NCI), 48 h
NCI-H460 lung = system: NCI-H460 lung
IGROV1 ovarian = system: IGROV1 ovarian
SNB-75 CNS = system: SNB-75 CNS
A549 NSCLC = system: A549 NSCLC
UACC-62 melanoma = system: UACC-62 melanoma
RPMI-8226 leukemia = system: RPMI-8226 leukemia
KM12 colon = system: KM12 colon
NCI-H23 lung = system: NCI-H23 lung
786-0 renal = system: 786-0 renal
TK-10 renal = system: TK-10 renal

SMILES | GI50 (NCI-H460 lung) [µM] | TGI (NCI-H460 lung) [µM] | GI50 (IGROV1 ovarian) [µM] | TGI (IGROV1 ovarian) [µM] | GI50 (SNB-75 CNS) [µM] | TGI (SNB-75 CNS) [µM] | GI50 (A549 NSCLC) [µM] | TGI (A549 NSCLC) [µM] | GI50 (UACC-62 melanoma) [µM] | TGI (UACC-62 melanoma) [µM] | GI50 (RPMI-8226 leukemia) [µM] | TGI (RPMI-8226 leukemia) [µM] | GI50 (KM12 colon) [µM] | TGI (KM12 colon) [µM] | GI50 (NCI-H23 lung) [µM] | TGI (NCI-H23 lung) | GI50 (786-0 renal) [µM] | TGI (786-0 renal) [µM] | TGI (TK-10 renal) [µM] | GI50 (TK-10 renal) [µM]
N#Cc1ccc(O)c(C2=NCC(c3cccc(Oc4ccccc4)c3)O2)c1 (stereo not drawn) | 0.434 | 10.2 | 0.787 | 12.1 | 1.08 | > 100 | 0.876 | 11.8 | 1.03 | 2.27 | 0.715 | > 100 | 0.687 | 23.1 | 1.27 | > 100 µM | 0.761 | 7.59 |  | 
CCc1ccc(/C=C\c2cc(OC)c(OC)c(OC)c2)cc1 | 0.0329 |  |  |  | 0.0261 | > 100 |  | 53.1 |  |  | 0.0373 |  |  |  | 0.039 | 0.338 µM and 0.114 µM | 0.0353 | 14 |  | 
COc1ccc(/C=C/CN(C)CCc2ccccc2)cc1OC |  |  |  | > 100 |  | > 100 |  | > 100 |  | > 100 |  | > 100 |  | > 100 |  | > 100 µM |  | > 100 | > 100 | 
O=C1CCC(=O)N2CCCCN12 |  | > 100 |  | > 100 |  | > 100 |  | > 100 |  | > 100 |  |  |  | > 100 |  | > 100 µM |  | > 100 | > 100 | 
C/C(CC(=O)Nc1cc(Cl)c(Cl)cc1Cl)=N\NC(N)=O |  |  |  | > 100 |  | > 100 |  | > 100 |  | > 100 |  | > 100 |  | > 100 |  | > 100 µM |  | > 100 | > 100 | 
Cc1ccc2c(c1)[n+]([O-])c(N)n[n+]2[O-] |  | > 100 |  | > 100 |  | > 100 |  | > 100 |  |  |  | > 100 |  | > 100 |  | > 100 µM |  | > 100 | > 100 | 
O/N=C/C1c2ccccc2-c2ccccc21 |  | 36 |  |  |  |  |  | 51.5 |  | 30.2 |  | 52.8 |  | 37.4 |  | 37.6 µM |  | 21.9 | 34.9 | 
COc1ccc(-c2cnnc3c(-c4cccc(C(F)(F)F)c4)cnn23)cc1 | 4.67 | > 100 | 1.97 | > 100 | 1.51 | 4.6 | 4.19 | > 100 | 4.01 | > 100 | 2.72 | > 100 | > 100 | > 100 | 4.26 | > 100 µM | 2.76 | > 100 |  | 
O=c1c2cc([N+](=O)[O-])ccc2sc2ccsc12 |  | > 100 |  | > 100 |  | > 100 |  | > 100 |  | > 100 |  | > 100 |  | > 100 |  | > 100 µM |  | > 100 |  | 
CC(=O)CNC(=O)OC(C)(C)C |  | > 100 |  | > 100 |  | > 100 |  | > 100 |  | > 100 |  |  |  | > 100 |  | > 100 µM |  | > 100 | > 100 | 
CCN(CC)c1ccc(/C=C/c2ccc3cc(C)ccc3[n+]2CC)cc1 |  |  | 0.201 | 18.1 | 0.161 | 6.24 | 0.119 | 14.6 | 0.152 | 1.37 | 0.029 | 3.66 | 0.103 | 1.89 | 0.0303 | 12.5 µM | 0.295 | 6.46 | 11.8 | 0.146
O=C(O)CNS(=O)(=O)c1ccc(NCc2ccccc2)cc1 |  | > 100 |  | > 100 |  | > 100 |  | > 100 |  | > 100 |  | > 100 |  |  |  | > 100 µM |  | > 100 | > 100 | 
COC(=O)C1Cc2c(n(Cc3ccccc3)c3ccccc23)C(CCC(=O)O)N1C(C)C (stereo not drawn) |  | > 100 |  | > 100 |  | > 100 |  | > 100 |  | > 100 |  |  |  | > 100 |  | > 100 µM |  | > 100 | > 100 | 
CSC(C1c2ccccc2N(c2ccc(C)cc2)C2=NC(=O)N(C)C(=O)C21Cl)S(=O)(=O)c1ccc(C)cc1 (stereo not drawn) |  | 64.8 |  | 85.6 |  | 60 |  | > 100 |  | 52 |  | 57 |  |  |  | 46.9 µM |  | 38.4 | > 100 | 
Nc1nc(Cl)c2ncn(Cc3ccc(C45CC6CC(CC(C6)C4)C5)c(O)c3)c2n1 | 4.03 | 15.6 | 4.72 | 21.9 | 3.88 | 28.9 | 1.29 | 3.17 | 4.07 | 18.5 |  |  | 2.49 | 15.3 |  |  | 6.04 | 20 | 8.93 | 2.2
